In patent US7998958B2, “Substituted N-arylsulfonylheterocyclic amines as gamma-secretase inhibitors” (Schering Corporation, priority 2004, dated 2011):

Test system: gamma-secretase
Test: Gamma-secretase activity in membranes of 293 cells expressing C99 (SPC99-Ion), Aβ 40 / Aβ 42 by ECL immunoassay
Type: biochemical
Conditions: gamma-secretase membrane assay; single values listed after 'within the range of about 1 nM to about 25 nM, i.e.'
Procedure: Gamma-secretase activity was determined as described by Zhang et al. (Biochemistry, 40 (16), 5049-5055, 2001), which is herein incorporated by reference. Activity is expressed either as a percent inhibition or as the concentration of compound producing 50% inhibition of enzyme activity.
Reagents. Antibodies W02, G2-10, and G2-11 were obtained from Dr. Konrad Beyreuther (University of Heidelberg, Heidelberg, Germany). W02 recognizes residues 5-8 of Aβ peptide, while G2-10 and G2-11 recognize the specific C-terminal structure of Aβ 40 and Aβ42, respectively. Biotin-4G8 was purchased from Senetec (St. Louis, Mo.). All tissue culture reagents used in this work were from Life Technologies, Inc., unless otherwise specified. Pepstatin A was purchased from Roche Molecular Biochemicals; DFK167 was from Enzyme Systems Products (Livermore, Calif.).
cDNA Constructs, Tissue Culture, and Cell Line Construction. The construct SPC99-Ion, which contains the first 18 residues and the C-terminal 99 amino acids of APP carrying the London mutation, has been described (Zhang, L., Song, L., and Parker, E. (1999) J. Biol. Chem. 274, 8966-8972). Upon insertion into the membrane, the 17 amino acid signal peptide is processed, leaving an additional leucine at the N-terminus of Aβ. SPC99-Ion was cloned into the pcDNA4/TO vector (Invitrogen) and transfected into 293 cells stably transfected with pcDNA6/TR, which is provided in the T-REx system (Invitrogen). The transfected cells were selected in Dulbecco's modified Eagle's media (DMEM) supplemented with 10% fetal bovine serum, 100 units/mL penicillin, 100 µg/mL streptomycin, 250 µg/mL zeocin, and 5 µg/mL blasticidin (Invitrogen). Colonies were screened for Aβ production by inducing C99 expression with […] tetracycline for 16-20 h and analyzing conditioned media with a sandwich immunoassay (see below). One of the clones, designated as pTRE.15, was used in these studies.
Membrane Preparation. C99 expression in cells was induced with […] tetracycline for 20 h. The cells were pretreated with […] 12-myristate 13-acetate (PMA) and […] brefeldin A (BFA) for 5-6 h at 37° C. before harvesting. The cells were washed 3 times with cold phosphate-buffered saline (PBS) and harvested in buffer A containing 20 mM Hepes (pH 7.5), 250 mM sucrose, 50 mM KCl, 2 mM EDTA, 2 mM EGTA, and Complete protease inhibitor tablets (Roche Molecular Biochemicals). The cell pellets were flash-frozen in liquid nitrogen and stored at −70 C before use.
To make membranes, the cells were resuspended in buffer A and lysed in a nitrogen bomb at 600 psi. The cell lysate was centrifuged at 1500 g for 10 min to remove nuclei and large cell debris. The supernatant was centrifuged at 100000 g for 1 h. The membrane pellet was resuspended in buffer A plus 0.5 M NaCl, and the membranes were collected by centrifugation at 200000 g for 1 h. The salt-washed membrane pellet was washed again in buffer A and centrifuged at 100000 g for 1 h. The final membrane pellet was resuspended in a small volume of buffer A using a Teflon-glass homogenizer. The protein concentration was determined, and membrane aliquots were flash-frozen in liquid nitrogen and stored at −70° C.
γ-Secretase Reaction and AβAnalysis. To measure γ-secretase activity, membranes were incubated at 37° C. for 1 h in 50 μL of buffer containing 20 mM Hepes (pH 7.0) and 2 mM EDTA. At the end of the incubation, Aβ 40 and Aβ 42 were measured using an electrochemiluminescence (ECL)-based immunoassay. Aβ 40 was identified with antibody pairs TAG-G2-10 and biotin-W02, while Aβ 42 was identified with TAG-G2-11 and biotin-4G8. The ECL signal was measured using an ECL-M8 instrument (IGEN International, Inc.) according to the manufacturer's instructions. The data presented were the means of the duplicate or triplicate measurements in each experiment. The characteristics of γ-secretase activity described were confirmed using more than five independent membrane preparations.

SMILES | IC50 [nM]
O=C(OC[C@H]1COC[C@@H](c2cc(F)cc(F)c2)N1S(=O)(=O)c1ccc(Cl)cc1)N1CCC(N2CCCCC2)CC1 [Example 2] | 6.8
C[C@H]1OC[C@H](C2(OC(=O)N3CC4CCC(C3)N4CCO)CC2)N(S(=O)(=O)c2ccc(Cl)cc2)[C@@H]1C1CC1 [Example 75] | 0.9
O=C(OC1([C@H]2COC[C@@H](CC3CC3)N2S(=O)(=O)c2cc(F)cc(F)c2)CC1)N1CC2CCC(C1)N2 [Example 135] | 4.2
CC(C)(CO)N1CCN(C(=O)OC2(C3COCC(C4CC4)N3S(=O)(=O)c3ccc(Cl)cc3)CC2)CC1 (stereo not shown) [Example 35, 4-(2-Hydroxy-1,1-dimethyl-ethyl)-piperazine-1-carboxylic acid 1-[4-(4-chloro-benzenesulfonyl)-5-cyclopropyl-morpholin-3-yl]-cyclopropyl ester] | 9.5
CC(C)(CO)N1CCN(C(=O)OC2(C3COCC(c4cc(F)cc(F)c4)N3S(=O)(=O)c3ccc(Cl)cc3)CC2)CC1 (stereo not shown) [Example 16, 4-(2-Hydroxy-1,1-dimethyl-ethyl)-piperazine-1-carboxylic acid 1-[4-(4-chloro-benzenesulfonyl)-5-(3,5-difluoro-phenyl)-morpholin-3-yl]-cyclopropyl ester] | 1.4
O=C(OC[C@H]1COC[C@@H](C2CC2)N1S(=O)(=O)c1ccc(Cl)cc1)N1CCC(N2CCCCC2)CC1 [Example 30] | 11.1
O=C(C(O)C1([C@H]2COC[C@@H](C3CC3)N2S(=O)(=O)c2ccc(Cl)cc2)CC1)N1CC2CCC(C1)N2 (stereo partly drawn) [Example 146, alpha-[1-[4-[(4-chlorophenyl)sulfonyl]-5(r)-cyclopropyl-3(s)-morpholinyl]cyclopropyl]-beta-oxo-3,8-diazabicyclo[3.2.1]octane-3-ethanol] | 10.1
O=C(OC1([C@H]2COC[C@@H](C3CC3)N2S(=O)(=O)c2ccc(Cl)cc2)CC1)N1CC2CCC(C1)N2CCO [Example 43] | 7.9
CN(C)CC(=O)N1C2CCC1CN(C(=O)OC1([C@H]3COC[C@@H](C4CC4)N3S(=O)(=O)c3ccc(Cl)cc3)CC1)C2 [Example 59] | 8.9
O=C(OC1([C@H]2COC[C@@H](CC3CC3)N2S(=O)(=O)c2ccc(Cl)cc2)CC1)N1CC2CCC(C1)N2CCO [Example 99] | 0.9
CN1CC2CCC(C1)N2C(=O)OC1([C@H]2COC[C@@H](C3CC3)N2S(=O)(=O)c2ccc(Cl)cc2)CC1 [Example 51] | 6.2
CCC[C@@H]1COC[C@H](C2(OC(=O)N3CC4CCC(C3)N4CCO)CC2)N1S(=O)(=O)c1ccc(Cl)cc1 [Example 15] | 3.6
O=C(CC1([C@H]2COC[C@@H](C3CC3)N2S(=O)(=O)c2ccc(Cl)cc2)CC1)N1C2CCC1CC(N1CCCCC1)C2 (single isomer, unassigned) [Example 142] | 12.4

Other lines, results leading:

IC50 [nM] | SMILES
5.2 | C[C@@H]1OC[C@H](C2(OC(=O)N3CC[C@@H](O)C3)CC2)N(S(=O)(=O)c2ccc(Cl)cc2)[C@@H]1C1CC1 [Example 69]
2.1 | CC(C)(CO)N1CCN(C(=O)OC2(C3COCC(CC4CC4)N3S(=O)(=O)c3ccc(Cl)cc3)CC2)CC1 (stereo not shown) [Example 94, 4-(2-Hydroxy-1,1-dimethyl-ethyl)-piperazine-1-carboxylic acid 1-[4-(4-chloro-benzenesulfonyl)-5-cyclopropylmethyl-morpholin-3-yl]-cyclopropyl ester]
6.7 | C[C@H]1N(S(=O)(=O)c2ccc(Cl)cc2)[C@@H](C2(OC(=O)N3CCC(C(N)=O)CC3)CC2)COC1(C)C [Example 88]
3.9 | CC(C)[C@@H]1COC[C@H](C2(OC(=O)N3CCN(C(C)(C)CO)CC3)CC2)N1S(=O)(=O)c1ccc(Cl)cc1 [Example 78]
13.3 | CCCC1(O)CCN(C(=O)OC2([C@H]3COC[C@@H](C4CC4)N3S(=O)(=O)c3ccc(Cl)cc3)CC2)C1 (stereo partly shown) [Example 36]
3.6 | O=C(OC1([C@H]2COC[C@@H](CC3CC3)N2S(=O)(=O)c2ccc(Cl)cc2)CC1)N1CC2CC1CN2CCO (stereo partly shown) [Example 98]
24.5 | O=C(O)CC1CCN(C(=O)OC2([C@H]3COC[C@@H](C4CC4)N3S(=O)(=O)c3ccc(Cl)cc3)CC2)CC1 [Example 47]
5.7 | CN1CCN(C(=O)OC2([C@H]3COC[C@@H](CC4CC4)N3S(=O)(=O)c3ccc(Cl)cc3)CC2)CC1=O [Example 110]
4.2 | CN1CCCN(C(=O)OC2([C@H]3COC[C@@H](CC4CC4)N3S(=O)(=O)c3ccc(Cl)cc3)CC2)CC1 [Example 122]
